Assay results reported in patent publication US4657902A, “Therapeutic use of tin mesoporphyrin” (The Rockefeller University, priority 1985, dated 1987).
Where two headings read alike, the source gives them in different places.

Key:
heme oxygenase = target: T1, heme oxygenase (Rattus norvegicus, UniProt P06762); test: rat spleen heme oxygenase incubation, in vitro inhibition; format: biochemical; conditions: for Km: normal Km 3.64 μM, read-out: Km for degradation of heme by heme oxygenase to bile pigment
T1 construct: rat spleen - heme oxygenase incubation mixtures; from tissue; host or cells: rat spleen
T1 sequence (P06762 1-289): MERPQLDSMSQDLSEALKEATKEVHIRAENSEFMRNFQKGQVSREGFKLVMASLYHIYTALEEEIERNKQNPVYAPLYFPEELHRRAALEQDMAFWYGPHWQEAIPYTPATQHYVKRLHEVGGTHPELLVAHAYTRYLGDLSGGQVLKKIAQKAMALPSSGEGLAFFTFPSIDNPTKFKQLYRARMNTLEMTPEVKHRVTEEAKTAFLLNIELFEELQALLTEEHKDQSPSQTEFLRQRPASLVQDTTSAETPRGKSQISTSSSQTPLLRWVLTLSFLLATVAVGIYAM

serum bilirubin [1] = test: experimental postnatal hyperbilirubinemia produced by ALA in 7 day old rats, serum bilirubin; format: in vivo, rat; conditions: single dose 1 μmol/kg body weight at 0 time, 24 hours
Method: (§1) The efficacy of SnMP for controlling hyperbilirubinemia was also examined in a model of experimental postantal hyperbilirubinemia in the rat utilizing the heme precursor […] (ALA) to produce jaundice 7 days after birth (Drummond & Kappas, J. Clin. Invest., 74, 142-149, 1984). AlA (50 μmol/100g body weight) administered to suckling 7 day old neonates at 0,4 and 8 hours produced an approximately 3 fold increase in serum bilirubin levels 24 hours after the initial injection (FIG. 3). […] Heme oxygenase was assayed as earlier described (J. Biol. Chem., 253, 2321-2326, 1978).

hepatic heme oxygenase = hepatic heme oxygenase activity in ALA-treated 7 day old rats; format: in vivo, rat; conditions: single dose 1 μmol/kg body weight
Method: as §1

[2] = test system: liver tryptophan pyrrolase; test: liver tryptophan pyrrolase activity and heme saturation after parenteral administration to rats; format: in vivo, rat; conditions: 1 μmol/kg s.c.
Method: With adults afflicted with sickle cell anemia or another condition resulting in increased bilirubin concentration, the dosage unit is normally smaller since in all but the most acute situations, the bilirubin concentration is not as high as in neonates. The standard dosage with adults will normally be from about 2 to 5 mg/kg of body weight. […] In this study SnMP was administered subcutaneously at a dosage level of 1 μmol/kg of body weight to male Sprague-Dawley rats (180-200g). Control animals received an equivalent volume of aqueous isotonic saline. Tissue preparation of liver fractions for enzymic assays were conducted as described by Drummond and Kappas. Proc. Natl. Acad. Sci. USA. 78:6466-6470 (1981). Tryptophan pyrrolase activity was determined both in the absence (holoenzyme) and the presence (total enzyme) of added heme ([…]). The latter enzyme activity was calculated from the linear phase of kynurenine formation. The percent heme saturation for tryptophan pyrrolase was expressed as the ratio of holoenzyme to total enzyme (×100 ). Each data point in the figure represents the mean value of determinations in 3 to 6 animals.

[3] = biliary output of bilirubin, heme and iron in rats; format: in vivo, rat
Method: It has been observed that when heme is administered alone to animals such as rats, a large output of biliary bilirubin (mono- and diglucuronide forms) occurs, with a slight output of excess heme.
It is therefore clear that the administration of SnMP to mammals increases the biliary excretion of excess heme and thus of its contained iron atom as well. They make it clear also that the excess heme which accumulates when the rate of bilirubin production is decreased by the administration of SnMP is excreted in the bile and not stored in tissues. More particularly, they make it clear that the administration of SnMP to mammals suffering acute or chronic excess of heme or iron will increase the rate at which such heme or iron will be excreted into the intestinal contents.

serum bilirubin [4] = test: serum bilirubin in newborn rats after a single subcutaneous injection at birth

Question: For tin mesoporphyrin [SnMP], which “inhibition of heme oxygenase activity” value (heme oxygenase; 0.025 and 0.05 μM SnMP) is on record?
Answer: Its value is “marked competitive inhibition”.

Question: What about the Km (heme oxygenase; SnMP 0.025 μM) of the same substance?
Answer: Its Km is 11.1 µM.

Question: And the Km (heme oxygenase; SnMP 0.05 μM)?
Answer: The Km was 18.2 µM.

Question: And the “in vitro ability to inhibit the production of bilirubin relative to SnPP” value (heme oxygenase; compared with SnPP)?
Answer: Its value is “just about as effective in this regard as SnPP”.

Question: What about the Ki (heme oxygenase; rat spleen heme oxygenase, read-out: inhibition constant Ki for the inhibition of the conversion of heme to bilirubin by heme oxygenase) of the same substance?
Answer: Its Ki is 13 nM.

Question: What about the “effect on the increase in serum bilirubin produced by ALA” value (serum bilirubin [1]) of the same substance?
Answer: Its value is “substantially diminished”.

Question: And the “effect on the increase in hepatic heme oxygenase activity associated with ALA administration” value (hepatic heme oxygenase)?
Answer: The value was “prevented the increase”.

Question: And the “percent heme saturation of tryptophan pyrrolase” value ([2]; male Sprague-Dawley rats, in two hours)?
Answer: Its value is “approximately 80%”.

Question: What about the “duration of the initial high tryptophan pyrrolase activity relative to SnPP” value ([2]; rats, compared with SnPP) of the same substance?
Answer: Its value is “maintained for a more extended period of time”.

Question: What about the “output of biliary iron” value ([3]; bile duct cannulated rats) of the same substance?
Answer: Its value is “increase in output of biliary iron”.

Question: What about the biliary bilirubin output ([3]; rats, SnMP administered with heme) of the same substance?
Answer: Its biliary bilirubin output is “the bilirubin peak will decline”.

Question: And the “effect on the increase in serum bilirubin 24 hours after birth” value (serum bilirubin [4]; 1 μmol/kg body weight s.c. once at birth)?
Answer: The value was “entirely prevented”.

Question: What about the “effectiveness in vivo in lowering plasma bilirubin / suppressing neonatal jaundice relative to SnPP” value (serum bilirubin [4]; compared with SnPP) of the same substance?
Answer: The value was 5-10 times.
